# Results from publication PMC3894558, “Chemical signatures and new drug targets for gametocytocidal drug development” (Scientific Reports, 2014).
# Where two headings read alike, the source gives them in different places.
# System: P. falciparum 3D7 gametocytes
# Assay: alamarBlue gametocyte viability assay, strain 3D7
# Type: cell-based, Plasmodium falciparum
# Details: Malaria Box; for Max Resp: DMSO set at 0%, 100 nM epoxomicin set at -100%; for Curve Class / IC50: stages III-V 3D7 gametocytes; for IC50: 11 concentrations, 1:3 dilution; call rule not given here
Compound,Max Resp [%],Curve Class,IC50,IC50 (read-out: IC50) [µM]
O=C(Nc1ccc(Br)cc1)Nc1cccc(Cl)c1 [MMV001318],-20,4,Inactive,
Cc1ccc(Cl)cc1N1CCN(CCCNC(=O)C2CCN(c3nc4ccccc4[nH]3)CC2)CC1 [MMV019746],-74,-2.2,,29.6
COCCNCC(O)Cn1c2ccc(Cl)cc2c2cc(Cl)ccc21 (stereo not drawn) [MMV019017],-94,-1.1,,2.64
Cc1[nH]c(-c2ccc(F)cc2)cc1C(=O)NC1CCN(Cc2ccccc2)CC1 [MMV019738],-61,-2.2,,29.6
N#Cc1nc(Cc2cccc3ccccc23)oc1N1CCN(C(c2ccccc2)c2ccccc2)CC1 [MMV396726],-1,4,Inactive,
COc1ccc2nc(C)cc(Nc3ccc(Cl)cc3)c2c1 [MMV007875],-72,-2.2,,23.5
Clc1ccc2c(N3CCCC3)ccnc2c1 [MMV007363],-75,-2.2,,23.5
Cc1cccc(Nc2nc(N)c3ccccc3n2)c1.Cl [MMV019110],-65,-2.2,,18.7
CC(NCc1ccccc1)c1cc(Cl)ccc1O (stereo not drawn) [MMV665789],-58,-1.2,,1.32
c1ccc2c(NCCc3c[nH]c4ccccc34)c3ccccc3nc2c1 [MMV006513],-85,-2.1,,16.6
CCOC(=O)c1c[nH]c2c(CC)cccc2c1=O [MMV498479],28,4,Inactive,
CCOC(=O)c1cn(CC)c2cc(N3CCCCC3)c(F)cc2c1=O [MMV665827],7,4,Inactive,
OCCNc1nc(Nc2ccc(Cl)c(Cl)c2)nc2ccccc12 [MMV001041],-63,-2.2,,14.8
O=C(NC1CCN(Cc2ccccc2)CC1)c1cc(C(=O)NC2CCN(Cc3ccccc3)CC2)cc(C(=O)NC2CCN(Cc3ccccc3)CC2)c1 [MMV019881],-90,-1.1,,2.96
C[n+]1c2ccccc2nc2ccc(NCCO)cc21 [MMV396693],-85,-1.1,,2.96
CCOc1cccc(C(=O)Nc2ccc(-c3nc4ccccc4[nH]3)cc2)c1 [MMV019202],-23,4,Inactive,
CCOc1cccc2sc(N(Cc3cccnc3)C(=O)C3CCCCC3)nc12 [MMV001230],-26,4,Inactive,
COc1cccc(C(=O)NC(c2ccc(C)cc2)c2cc(Cl)c3cccnc3c2O)c1 (stereo not drawn) [MMV665969],-76,-2.2,,11.8
COc1cc(-c2nc(-c3ccc(Sc4ccccc4)cc3)c(-c3ccccc3)[nH]2)cc(OC)c1O [MMV007273],-62,-2.2,,29.6
Cc1ccccc1OCCSc1nc2ccc(NC(=O)c3cccs3)cc2s1 [MMV007396],23,4,Inactive,
Oc1c(CN2CCN(c3ccccc3F)CC2)cc(Br)c2cccnc12 [MMV000760],-91,-1.1,,3.72
CCC(=O)Nc1nnc(Cc2ccc(OC)c(OC)c2)s1 [MMV020942],-19,4,Inactive,
c1ccc(CNc2nc(Nc3ccccc3)nc3ccccc23)cc1 [MMV006169],-80,-2.2,,11.8
CCCOCc1cc(CN2CCN(c3cccc(Cl)c3)CC2)c(O)c2ncccc12 [MMV000787],-98,-1.1,,8.33

Compound,Max Resp [%],Curve Class,IC50,IC50 (read-out: IC50) [µM]
COc1ccc(Nc2cc(C)nc(NCc3ccccc3)n2)cc1 [MMV006825],-74,-2.2,,23.5
CCOc1ccc(/C=C/c2nc(=O)c3ccccc3o2)cc1 [MMV665940],46,2.2,,18.7
O=C(Nc1ccc(CN2CCOCC2)cc1)c1ccc(-c2cc(Cl)ccc2Cl)o1 [MMV020651],-23,4,Inactive,
CCCN(CCC)CCCNC(=O)c1cc2c(-c3ccc(OC)c(OC)c3)nn(C)c2s1 [MMV000561],-52,-2.2,Inactive,
O=C(O)C(=O)O.Oc1ccc(Br)cc1CN1CCN(Cc2cccc(F)c2)CC1 [MMV000356],-72,-1.2,,2.64
COc1ccc(CCn2c(=N)c(C(=O)NCc3cccnc3)cc3c(=O)n4cccc(C)c4nc32)cc1 [MMV667488],-32,-1.2,,2.64
COc1ccc(-c2nc3cc(Cc4ccc5[nH]c(-c6ccc(OC)cc6)nc5c4)ccc3[nH]2)cc1 [MMV007384],-59,-2.2,,37.2
COc1cc(C(=O)Nc2ccc(-c3nc4ccccc4[nH]3)cc2)cc(OC)c1OC [MMV665898],-26,4,Inactive,
CCCCCCC(O)(c1ccc(F)cc1)C(CN1CCOCC1)c1ccccc1.Cl (stereo not drawn) [MMV000621],-59,-2.2,,37.2
CCOc1cc2c(cc1OCC)C(c1cc(C)c(O)c(C)c1)NCC2.Cl (stereo not drawn) [MMV000483],-82,-1.1,,5.26
COc1ccccc1N1CCN(C(CNS(=O)(=O)c2ccc(Cl)cc2)c2cccnc2)CC1 (stereo not drawn) [MMV665914],-63,-2.2,,29.6
c1ccc(Cn2c(N=Nc3c(Nc4ccccc4)ccc4ccccc34)nc3ccccc32)cc1 [MMV666023],-89,-2.1,,10.5
CC1CCCCN1CCCNC(=O)c1ccc2c(c1)sc1nc(-c3ccc(F)cc3)cn12 (stereo not drawn) [MMV000634],-84,-2.1,,10.5
CCN(CC)CCCNc1ccnc2cc3ccccc3cc12 [MMV665783],-50,-2.2,Inactive,
O=c1cc(NC2CCN(CCCc3ccccc3)CC2)c2cc(Cl)ccc2o1 [MMV665786],-89,-2.1,,14.8
CCN(CC)CCn1c(=N)n(CC(O)c2ccc(Cl)c(Cl)c2)c2ccccc21.Cl (stereo not drawn) [MMV000248],-99,-1.1,,1.48
COc1ccc(-c2cc(=O)oc3c4c(ccc23)OCN(Cc2ccc(F)cc2)C4)cc1 [MMV000604],-55,-2.2,,7.43
Cc1ccc(Nc2nc(NCCO)c3ccccc3n2)cc1C [MMV001038],-71,-1.2,,3.32
O=C(O)C1Cc2c([nH]c3ccccc23)C(c2ccc(Cl)cc2Cl)N1 (stereo not drawn) [MMV008138],-1,4,Inactive,
Cc1ccc(-c2nc3ccccc3o2)cc1NCc1cc(Cc2ccccc2)ccc1O [MMV020912],-63,-2.2,,23.5
OC(CNC1CCCCC1)Cn1c2ccc(I)cc2c2cc(I)ccc21 (stereo not drawn) [MMV665882],-97,-2.1,,2.96
CCOC(=O)C1=C(C)N=c2sc(=Cc3cc(Cl)ccc3O)c(=O)n2C1c1ccc(OC)cc1 (stereo not drawn) [MMV665971],-40,-1.2,,2.96
CCc1ccc(Nc2cc(C)c3ccc(O)cc3n2)cc1.Cl [MMV000570],-29,-1.2,,0.469
